Patent US8921376B2, “Pyrrolopyridines useful as inhibitors of protein kinase” (Vertex Pharmaceuticals Incorporated, priority 2005, dated 2014)

What was measured:
Type in all cases: biochemical
JAK3 = molecular target: T1, JAK3 (Homo sapiens, UniProt P52333); assay: JAK3 inhibition assay (33P incorporation into poly(Glu)4Tyr); conditions: enzyme inhibition, Table 5
T1 sequence (P52333 1-1124): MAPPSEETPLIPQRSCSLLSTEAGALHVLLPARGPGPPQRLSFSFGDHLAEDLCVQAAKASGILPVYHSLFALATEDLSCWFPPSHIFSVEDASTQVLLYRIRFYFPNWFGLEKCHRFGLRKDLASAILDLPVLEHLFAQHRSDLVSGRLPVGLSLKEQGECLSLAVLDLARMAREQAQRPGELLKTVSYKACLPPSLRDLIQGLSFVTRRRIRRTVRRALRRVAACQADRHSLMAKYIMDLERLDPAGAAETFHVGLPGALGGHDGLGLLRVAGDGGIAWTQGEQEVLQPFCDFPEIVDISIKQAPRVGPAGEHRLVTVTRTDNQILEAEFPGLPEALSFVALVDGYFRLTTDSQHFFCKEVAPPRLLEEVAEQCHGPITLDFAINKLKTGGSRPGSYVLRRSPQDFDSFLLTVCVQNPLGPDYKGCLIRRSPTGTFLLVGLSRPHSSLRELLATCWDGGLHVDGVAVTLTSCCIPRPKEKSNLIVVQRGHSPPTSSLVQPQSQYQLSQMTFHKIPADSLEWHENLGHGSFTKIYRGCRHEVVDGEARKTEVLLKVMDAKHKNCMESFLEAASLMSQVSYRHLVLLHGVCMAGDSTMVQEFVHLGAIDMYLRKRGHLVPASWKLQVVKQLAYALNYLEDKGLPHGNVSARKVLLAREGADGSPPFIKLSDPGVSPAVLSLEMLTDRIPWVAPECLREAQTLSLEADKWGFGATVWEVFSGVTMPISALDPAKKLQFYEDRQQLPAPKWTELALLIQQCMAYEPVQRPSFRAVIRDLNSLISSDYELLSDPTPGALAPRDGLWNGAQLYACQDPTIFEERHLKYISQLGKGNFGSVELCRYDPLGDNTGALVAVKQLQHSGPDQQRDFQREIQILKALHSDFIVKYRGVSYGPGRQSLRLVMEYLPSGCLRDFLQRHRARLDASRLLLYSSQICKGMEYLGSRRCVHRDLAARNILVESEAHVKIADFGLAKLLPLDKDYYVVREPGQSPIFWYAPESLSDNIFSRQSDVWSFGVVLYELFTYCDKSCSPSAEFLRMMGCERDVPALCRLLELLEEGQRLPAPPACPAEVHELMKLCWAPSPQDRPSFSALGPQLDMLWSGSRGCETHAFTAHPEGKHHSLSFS
Description: (§1) Compounds were screened for their ability to inhibit JAK using the assay shown below. Reactions were carried out in a kinase buffer containing 100 mM HEPES (pH 7.4), 1 mM DTT, 10 mM MgCl2, 25 mM NaCl, and 0.01% BSA.
(§2) Substrate concentrations in the assay were 5 μM ATP (200 μCi/μmole ATP) and 1 μM poly(Glu)4Tyr. Reactions were carried out at 25° C. and 1 nM JAK3.
(§3) To each well of a 96 well polycarbonate plate was added 1.5 μl of a candidate JAK3 inhibitor along with 50/1 of kinase buffer containing 2 μM poly(Glu)4Tyr and 10 μM ATP. This was then mixed and 50 μl of kinase buffer containing 2 nM JAK3 enzyme was added to start the reaction. After 20 minutes at room temperature (25 C), the reaction was stopped with 50 μl of 20% trichloroacetic acid (TCA) that also contained 0.4 mM ATP. The entire contents of each well were then transferred to a 96 well glass fiber filter plate using a TomTek Cell Harvester. After washing, 60 μl of scintillation fluid was added and ^33P incorporation detected on a Perkin Elmer TopCount.

ROCK I = ROCK I (Homo sapiens, UniProt Q13464); assay: ROCK-I inhibition assay (radioactive enzyme assay, MBP substrate); conditions: enzyme inhibition, Ki(app), Table 5
Sequence of ROCK I (Q13464 whole entry): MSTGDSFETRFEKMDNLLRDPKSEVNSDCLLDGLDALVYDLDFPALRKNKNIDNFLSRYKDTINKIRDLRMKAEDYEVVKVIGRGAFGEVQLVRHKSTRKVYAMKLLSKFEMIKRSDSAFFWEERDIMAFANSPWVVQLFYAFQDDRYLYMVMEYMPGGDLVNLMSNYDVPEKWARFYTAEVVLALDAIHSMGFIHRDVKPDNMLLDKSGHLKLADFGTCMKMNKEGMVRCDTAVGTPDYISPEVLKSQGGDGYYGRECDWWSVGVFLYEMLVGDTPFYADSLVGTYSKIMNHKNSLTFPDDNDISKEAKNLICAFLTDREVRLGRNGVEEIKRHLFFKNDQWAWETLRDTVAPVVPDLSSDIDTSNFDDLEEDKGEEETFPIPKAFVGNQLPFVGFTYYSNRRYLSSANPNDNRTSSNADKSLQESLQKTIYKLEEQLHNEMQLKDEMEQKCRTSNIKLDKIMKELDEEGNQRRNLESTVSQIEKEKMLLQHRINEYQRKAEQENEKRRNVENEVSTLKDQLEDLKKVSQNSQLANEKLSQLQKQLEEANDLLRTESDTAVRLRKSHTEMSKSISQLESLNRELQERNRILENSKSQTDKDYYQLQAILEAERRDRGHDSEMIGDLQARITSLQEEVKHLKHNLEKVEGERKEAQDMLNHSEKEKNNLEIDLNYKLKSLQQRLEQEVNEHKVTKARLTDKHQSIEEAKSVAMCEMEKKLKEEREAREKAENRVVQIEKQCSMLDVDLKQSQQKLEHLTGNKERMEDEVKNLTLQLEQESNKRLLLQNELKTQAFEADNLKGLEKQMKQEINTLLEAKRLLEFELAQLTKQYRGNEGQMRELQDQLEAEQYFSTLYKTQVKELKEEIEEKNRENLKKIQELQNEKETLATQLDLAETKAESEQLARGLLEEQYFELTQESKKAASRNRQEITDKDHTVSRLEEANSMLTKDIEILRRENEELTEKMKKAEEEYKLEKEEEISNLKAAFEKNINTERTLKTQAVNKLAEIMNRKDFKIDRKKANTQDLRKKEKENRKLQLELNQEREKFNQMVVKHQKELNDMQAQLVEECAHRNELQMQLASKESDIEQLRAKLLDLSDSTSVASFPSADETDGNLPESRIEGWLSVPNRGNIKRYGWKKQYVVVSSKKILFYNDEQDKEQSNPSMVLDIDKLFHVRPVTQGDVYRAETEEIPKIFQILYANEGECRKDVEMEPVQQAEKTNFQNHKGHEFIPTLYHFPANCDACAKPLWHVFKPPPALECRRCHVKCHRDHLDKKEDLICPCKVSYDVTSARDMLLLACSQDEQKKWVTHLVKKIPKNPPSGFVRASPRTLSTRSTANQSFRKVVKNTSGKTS
Description: Compounds were screened for their ability to inhibit ROCK using a standard radioactive enzyme assay. Assays were carried out in a solution containing 100 mM HEPES (pH 7.5), 10 mM MgCl2, 25 mM NaCl, 2 mM DTT, and 1.5% DMSO. Final substrate concentrations in the assay were 13 μM [γ-^33P] ATP (25 mCi ^33P ATP/mmol ATP, Perkin Elmer, Cambridge, Mass./Sigma Chemicals, St Louis, Mo.) and 27 μM Myelin Basic Protein (MBP). Final enzyme concentration in the assay was 5 nM ROCK. Assays were carried out at room temperature. 1.5 μl of DMSO stock containing serial dilutions of the compound of the present invention (concentrations ranging from 10 μM to 2.6 nM) was placed in a 96 well plate. 50 μl of Solution 1 (100 mM HEPES (pH 7.5), 10 mM MgCl2, […]) was added to the plate. The reaction was initiated by addition of 50 μl of Solution 2 (100 mM HEPES (pH 7.5), 10 mM MgCl2, 4 mM DTT, […] and 10 nM ROCK). After 2 hours the reaction was quenched with 50 μL of 30% trichloroacetic acid (TCA, Fisher) containing 9 mM ATP. Transfer of 140 μL of the quenched reaction to a glass fiber filter plate (Corning, Cat. No. 3511) was followed by washing 3 times with 5% TCA. 50 μl of Optima Gold scintillation fluid (Perkin Elmer) was added and the plates were counted on a Top Count (Perkin Elmer). After removing mean background values for all of the data points the data was fit using Prism software to obtain a Ki(app).

JAK2 = JAK2 (Homo sapiens, UniProt O60674); assay: JAK2 inhibition assay (as Example 3 with JAK-2 enzyme); conditions: enzyme inhibition, Table 5
Sequence of JAK2 (O60674 whole entry): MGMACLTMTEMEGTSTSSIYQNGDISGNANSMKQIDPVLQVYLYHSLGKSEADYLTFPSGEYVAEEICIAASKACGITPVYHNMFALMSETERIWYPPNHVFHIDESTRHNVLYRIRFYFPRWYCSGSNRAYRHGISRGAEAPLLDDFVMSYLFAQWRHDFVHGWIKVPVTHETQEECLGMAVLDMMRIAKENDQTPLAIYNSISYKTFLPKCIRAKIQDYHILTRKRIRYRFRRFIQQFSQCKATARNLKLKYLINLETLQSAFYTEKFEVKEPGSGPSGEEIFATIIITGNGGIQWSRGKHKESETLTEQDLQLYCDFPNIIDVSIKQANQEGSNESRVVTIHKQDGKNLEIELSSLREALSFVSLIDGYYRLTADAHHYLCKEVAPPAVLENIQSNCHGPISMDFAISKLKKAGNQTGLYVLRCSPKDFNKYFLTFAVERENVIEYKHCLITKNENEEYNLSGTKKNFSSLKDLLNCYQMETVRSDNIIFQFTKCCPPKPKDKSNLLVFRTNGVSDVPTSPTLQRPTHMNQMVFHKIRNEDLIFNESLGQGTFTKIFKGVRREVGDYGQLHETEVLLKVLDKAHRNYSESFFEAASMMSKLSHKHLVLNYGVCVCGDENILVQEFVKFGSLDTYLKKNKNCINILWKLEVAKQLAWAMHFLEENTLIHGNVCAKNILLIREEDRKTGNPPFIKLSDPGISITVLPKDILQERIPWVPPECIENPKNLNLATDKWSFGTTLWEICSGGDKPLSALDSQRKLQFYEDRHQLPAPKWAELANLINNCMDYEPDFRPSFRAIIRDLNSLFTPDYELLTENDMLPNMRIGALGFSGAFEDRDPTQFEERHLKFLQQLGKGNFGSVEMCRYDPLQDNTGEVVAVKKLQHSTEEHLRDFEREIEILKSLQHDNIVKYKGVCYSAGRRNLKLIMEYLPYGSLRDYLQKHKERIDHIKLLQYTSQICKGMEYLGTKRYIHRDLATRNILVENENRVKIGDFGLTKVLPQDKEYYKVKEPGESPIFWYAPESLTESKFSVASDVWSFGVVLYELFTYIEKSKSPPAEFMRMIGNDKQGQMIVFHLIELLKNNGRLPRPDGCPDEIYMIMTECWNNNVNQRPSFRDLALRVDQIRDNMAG
Description: as §1, §2, §3
The assays were as described above in Example 3 except that JAK-2 enzyme was used, the final poly(Glu)4Tyr concentration was 15 μM, and final ATP concentration was 12 μM.

## CCC(CO)NC(=O)c1ccc(-c2ccnc3[nH]ccc23)s1 (racemic) [compound 14]
JAK3
  Ki: < 500 nM
ROCK I
  Ki: < 500 nM

## COc1ccc(-c2ccnc3[nH]ccc23)cc1OC [compound 1, 4-(3,4-dimethoxyphenyl)-1H-pyrrolo[2,3-b]pyridine]
JAK3
  Ki: 500 to 5000 nM

## O=C(N[C@H](CO)c1cccc(Cl)c1)c1cc(-c2ccnc3[nH]ccc23)c[nH]1 [compound 2]
JAK3
  Ki: 500 to 5000 nM

## CS(=O)(=O)Nc1cccc(CC(=O)Nc2cc(-c3ccnc4[nH]ccc34)cs2)c1 [compound 3]
JAK3
  Ki: < 500 nM
ROCK I
  Ki: < 500 nM

## O=C(c1ccc(-c2ccnc3[nH]ccc23)s1)N1CCNCC1 [compound 4]
JAK3
  Ki: < 500 nM
ROCK I
  Ki: < 500 nM

## O=C(NCC1CCCO1)c1ccc(-c2ccnc3[nH]ccc23)s1 (stereo not drawn) [compound 6]
JAK3
  Ki: < 500 nM
ROCK I
  Ki: < 500 nM

## CCCNC(=O)c1ccc(-c2ccnc3[nH]ccc23)s1 [compound 7]
JAK3
  Ki: < 500 nM
ROCK I
  Ki: < 500 nM

## O=C(NCCO)c1ccc(-c2ccnc3[nH]ccc23)s1 [compound 8]
JAK3
  Ki: < 500 nM
ROCK I
  Ki: < 500 nM

## COCCNC(=O)c1ccc(-c2ccnc3[nH]ccc23)s1 [compound 9]
JAK3
  Ki: < 500 nM
ROCK I
  Ki: < 500 nM

## O=C(c1ccc(-c2ccnc3[nH]ccc23)s1)N1CCC[C@H]1CO [compound 10]
JAK3
  Ki: < 500 nM
ROCK I
  Ki: < 500 nM

## O=C(c1ccc(-c2ccnc3[nH]ccc23)s1)N1CCC[C@@H]1CO [compound 11]
JAK3
  Ki: < 500 nM
ROCK I
  Ki: < 500 nM

## COC[C@@H]1CCCN1C(=O)c1ccc(-c2ccnc3[nH]ccc23)s1 [compound 12]
JAK3
  Ki: 500 to 5000 nM
ROCK I
  Ki: 500 to 5000 nM

## COC[C@H]1CCCN1C(=O)c1ccc(-c2ccnc3[nH]ccc23)s1 [compound 13]
JAK3
  Ki: < 500 nM
ROCK I
  Ki: < 500 nM

## C[C@@H](CO)NC(=O)c1ccc(-c2ccnc3[nH]ccc23)s1 [compound 15]
JAK3
  Ki: < 500 nM
ROCK I
  Ki: < 500 nM

## CC(C)C(CO)NC(=O)c1ccc(-c2ccnc3[nH]ccc23)s1 (stereo not drawn) [compound 16]
JAK3
  Ki: < 500 nM
ROCK I
  Ki: < 500 nM

## CCC(CC)NC(=O)c1ccc(-c2ccnc3[nH]ccc23)s1 [compound 17]
JAK3
  Ki: < 500 nM
ROCK I
  Ki: < 500 nM

## CC(=O)N1CCCN(c2cccc(-c3ccnc4[nH]ccc34)n2)CC1 [compound 18]
JAK3
  Ki: 500 to 5000 nM
JAK2
  Ki: < 500 nM
ROCK I
  Ki: 500 to 5000 nM
